These are literature values, as cited in US20220265733A1, “COMPOSITIONS COMPRISING BACTERIAL STRAINS” (4D Pharma Research Limited, priority 2019, published 2022).

Molecules are shown by their SMILES.

Series [1] concerns class I HDAC. Particulars: reference [70].
The subject of series [2] is DSS-colitis murine model. Particulars: reference [70].

Consider `CCCC(CCC)C(=O)O` [valproic acid], for which the HDAC inhibition entry in series [1] was “associated with class I HDAC inhibition”. The colitis result in series [2] is “amelioration”.
